For 22 molecules, IC50 results are on record in patent publication US11976061B2, “Preparation of benzimidazolone derivatives as novel diacylglyceride O-acyltransferase 2 inhibitors” (Merck Sharp & Dohme LLC, priority 2020, dated 2024).

The assay has as its target T1, human DGAT2 (hDGAT2) (Homo sapiens, UniProt Q96PD7).
T1 construct: made in house; host or cells: Sf-9 insect cells (baculovirus), membrane fraction
T1 sequence (Q96PD7 1-388): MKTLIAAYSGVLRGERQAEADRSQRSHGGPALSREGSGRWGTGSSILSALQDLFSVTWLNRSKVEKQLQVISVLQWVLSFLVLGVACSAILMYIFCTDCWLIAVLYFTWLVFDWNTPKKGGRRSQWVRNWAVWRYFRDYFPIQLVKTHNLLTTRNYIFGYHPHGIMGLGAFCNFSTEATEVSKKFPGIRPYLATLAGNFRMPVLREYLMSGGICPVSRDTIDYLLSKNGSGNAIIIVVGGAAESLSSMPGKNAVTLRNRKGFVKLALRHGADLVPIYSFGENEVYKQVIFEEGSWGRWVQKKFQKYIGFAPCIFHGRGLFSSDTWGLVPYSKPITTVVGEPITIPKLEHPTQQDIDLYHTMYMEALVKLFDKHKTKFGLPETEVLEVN
The assay can be described thus: DGAT2 Enzymatic Activity Assay. The following applies: membrane prep of Sf-9 cells expressing hDGAT2, 25 μM diolein, 5 μM 13C oleoyl-CoA, 13C18-triolein by LC/MS/MS. The format is biochemical. In a few lines: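 Membranes from Sf-9 cells expressing untagged human DGAT2 (8 ng/μL) incubated at rt in 100 mM Tris·Cl pH 7.0, 20 mM MgCl2, 5% ethanol with 25 μM diolein and 5 μM 13C oleoyl-CoA. 13C18-triolein product quantified by LC/MS/MS against 13C21-triolein internal standard; IC50 by 4-parameter fit.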

Molecules are shown by their SMILES. Like-named read-outs stand apart in the source and are kept apart here.

One may read the IC50 as the midpoint of a concentration-inhibition curve. `CC(n1c(=O)n(-c2cc(OC(F)(F)F)ccc2F)c2ccc(C(=O)NC3(C)CCS(=O)(=O)CC3)cc21)C(C)(C)O` (single isomer, unassigned) [Example 71b, 1-(2-fluoro-5-(trifluoromethoxy)phenyl)-3-(3-hydroxy-3-methylbutan-2-yl)-N-(4-methyl-1,1-dioxidotetrahydro-2H-thiopyran-4-yl)-2-oxo-2,3-dihydro-1H-benzo[d]imidazole-5-carboxamide]: the IC50 (read-out: DGAT2 IC50) worked out at 5.4 nM.
`CC(n1c(=O)n(-c2cc(OCC(F)F)ccc2F)c2cc(F)c(C(=O)NC3(C)CCS(=O)(=O)CC3)cc21)C(C)(C)O` (single isomer, unassigned) [Example 75a, 1-(5-(2,2-difluoroethoxy)-2-fluorophenyl)-6-fluoro-3-(3-hydroxy-3-methylbutan-2-yl)-N-(4-methyl-1,1-dioxidotetrahydro-2H-thiopyran-4-yl)-2-oxo-2,3-dihydro-1H-benzo[d]imidazole-5-carboxamide]: the IC50 (read-out: DGAT2 IC50) amounted to 1.5 nM.
As for `CC(C)n1c(=O)n(-c2cc(OC(F)F)ccc2F)c2ccc(C(=O)NC3(C)CS(=O)(=O)C3)cc21` [Example 80, 1-(5-(Difluoromethoxy)-2-fluorophenyl)-3-isopropyl-N-(3-methyl-1,1-dioxidothietan-3-yl)-2-oxo-2,3-dihydro-1H-benzo[d]imidazole-5-carboxamide], the IC50 (read-out: Human DGAT2 IC50) was found to be 7.7 nM.
`CC(C)n1c(=O)n(-c2cccc(OC3CC3)c2)c2ccc(C(=O)NC3(C)CS(=O)(=O)C3)cc21` [Example 14, 1-[3-(cyclopropoxy)phenyl]-3-isopropyl-N-(3-methyl-1,1-dioxo-thietan-3-yl)-2-oxo-benzimidazole-5-carboxamide]: the IC50 (read-out: Human DGAT2 IC50) stood at 15 nM.
On to `CC(C)n1c(=O)n(-c2cccc(OC(F)F)c2)c2ccc(C(=O)N[C@@]3(C)CCS(=O)(=O)C3)cc21` [Example 32, 1-[3-(difluoromethoxy)phenyl]-3-isopropyl-N-[(3S)-3-methyl-1,1-dioxo-thiolan-3-yl]-2-oxo-benzimidazole-5-carboxamide], for which, under “read-out: DGAT2 IC50”, the IC50 worked out at 96 nM.
In the case of `CC(C)n1c(=O)n(-c2cccc(C3CC3(F)F)c2)c2ccc(C(=O)NC3(C)CS(=O)(=O)C3)cc21` (stereo not shown) [Example 22, 1-(3-(2,2-Difluorocyclopropyl)phenyl)-3-isopropyl-N-(3-methyl-1,1-dioxidothietan-3-yl)-2-oxo-2,3-dihydro-1H-benzo[d]imidazole-5-carboxamide], the IC50 (read-out: Human DGAT2 IC50) was found to be 66 nM.
For `CC(n1c(=O)n(-c2cc(OCC(F)F)ncc2F)c2cc(F)c(C(=O)NC3(C)CCS(=O)(=O)CC3)cc21)C(C)(C)O` (single isomer, unassigned) [Example 74b, 1-(2-(2,2-difluoroethoxy)-5-fluoropyridin-4-yl)-6-fluoro-3-(3-hydroxy-3-methylbutan-2-yl)-N-(4-methyl-1,1-dioxidotetrahydro-2H-thiopyran-4-yl)-2-oxo-2,3-dihydro-1H-benzo[d]imidazole-5-carboxamide], for the setting “read-out: DGAT2 IC50”, the IC50 worked out at 6.5 nM.
The same measure, in the same setting: the result for `CC(C)n1c(=O)n(-c2cccc(C(N)=O)c2)c2ccc(C(=O)NC3(C)CCS(=O)(=O)CC3)cc21` [Example 55, 1-(3-carbamoylphenyl)-3-isopropyl-N-(4-methyl-1,1-dioxidotetrahydro-2H-thiopyran-4-yl)-2-oxo-2,3-dihydro-1H-benzo[d]imidazole-5-carboxamide] reads > 9990 nM; that for `CCOc1cc(-n2c(=O)n(C(C)C(C)(C)O)c3cc(C(=O)NC4(C)CCS(=O)(=O)CC4)ccc32)c(F)cn1` (single isomer, unassigned) [Example 69a, 1-(2-ethoxy-5-fluoropyridin-4-yl)-3-(3-hydroxy-3-methylbutan-2-yl)-N-(4-methyl-1,1-dioxidotetrahydro-2H-thiopyran-4-yl)-2-oxo-2,3-dihydro-1H-benzo[d]imidazole-5-carboxamide], 9.7 nM.
Take `CC(C)n1c(=O)n(-c2cccc(OC(F)F)c2)c2cc(F)c(C(=O)NC3(C)CCS(=O)(=O)CC3)cc21` [Example 112, 1-(3-(Difluoromethoxy)phenyl)-6-fluoro-3-isopropyl-N-(4-methyl-1,1-dioxidotetrahydro-2H-thiopyran-4-yl)-2-oxo-2,3-dihydro-1H-benzo[d]imidazole-5-carboxamide]: under “read-out: Human DGAT2 IC50”, the IC50 worked out at 73.8 nM.
The same measure, in the same setting: the same measure for `CC(C)n1c(=O)n(-c2cccc(OCC(F)F)c2)c2ccc(C(=O)NC3(C)CS(=O)(=O)C3)cc21` [Example 8, 1-[3-(2,2-difluoroethoxy)phenyl]-3-isopropyl-N-(3-methyl-1,1-dioxo-thietan-3-yl)-2-oxo-benzimidazole-5-carboxamide]: 43 nM.
Take `CC(C)n1c(=O)n(-c2cccc(N(C)C)c2)c2ccc(C(=O)NC3(C)CCS(=O)(=O)CC3)cc21` [Example 54, 1-(3-(dimethylamino)phenyl)-3-isopropyl-N-(4-methyl-1,1-dioxidotetrahydro-2H-thiopyran-4-yl)-2-oxo-2,3-dihydro-1H-benzo[d]imidazole-5-carboxamide]: the IC50 (read-out: DGAT2 IC50) came to 1320 nM.
Turning to `CC(C)n1c(=O)n(-c2cccc(OC(F)(F)C(F)F)c2)c2ncc(C(=O)NC3(C)CCS(=O)(=O)CC3)cc21` [Example 87, 1-isopropyl-N-(4-methyl-1,1-dioxo-thian-4-yl)-2-oxo-3-[3-(1,1,2,2-tetrafluoroethoxy)phenyl]imidazo[4,5-b]pyridine-6-carboxamide], the IC50 (read-out: Human DGAT2 IC50) turned out to be 20 nM.
Regarding `CC(n1c(=O)n(-c2cc(OCC(F)F)ncc2F)c2ccc(C(=O)NC3(C)CCS(=O)(=O)CC3)cc21)C(C)(C)O` (single isomer, unassigned) [Example 72a, 1-(2-(2,2-difluoroethoxy)-5-fluoropyridin-4-yl)-3-(3-hydroxy-3-methylbutan-2-yl)-N-(4-methyl-1,1-dioxidotetrahydro-2H-thiopyran-4-yl)-2-oxo-2,3-dihydro-1H-benzo[d]imidazole-5-carboxamide], the IC50 (read-out: DGAT2 IC50) came out at 6.4 nM.
On the same count and under the same terms, the same measure for `CNS(=O)(=O)c1cccc(-n2c(=O)n(C(C)C)c3cc(C(=O)NC4(C)CCS(=O)(=O)CC4)ccc32)c1` [Example 57, 3-isopropyl-N-(4-methyl-1,1-dioxidotetrahydro-2H-thiopyran-4-yl)-1-(3-(N-methylsulfamoyl)phenyl)-2-oxo-2,3-dihydro-1H-benzo[d]imidazole-5-carboxamide]: > 9990 nM; for `CC(n1c(=O)n(-c2cccc(OCC(F)F)c2)c2ccc(C(=O)NC3(C)CCS(=O)(=O)CC3)cc21)C(C)(C)O` (single isomer, unassigned) [Example 68a, 1-(3-(2,2-difluoroethoxy)phenyl)-3-(3-hydroxy-3-methylbutan-2-yl)-N-(4-methyl-1,1-dioxidotetrahydro-2H-thiopyran-4-yl)-2-oxo-2,3-dihydro-1H-benzo[d]imidazole-5-carboxamide]: 4.1 nM.
Consider `CC(C)n1c(=O)n(-c2cc(OCC(F)F)ncc2F)c2cc(F)c(C(=O)NC3(C)CCS(=O)(=O)CC3)cc21` [Example 115, 1-(2-(2,2-difluoroethoxy)-5-fluoropyridin-4-yl)-6-fluoro-3-isopropyl-N-(4-methyl-1,1-dioxidotetrahydro-2H-thiopyran-4-yl)-2-oxo-2,3-dihydro-1H-benzo[d]imidazole-5-carboxamide], for which the IC50 (read-out: Human DGAT2 IC50) stood at 4.1 nM.
Still for that read-out and setting: the result for `CC(C)n1c(=O)n(-c2cccc(OC(F)F)c2)c2cc(Cl)c(C(=O)NC3(C)CCS(=O)(=O)CC3)cc21` [Example 127] reads 112 nM.
For `CC(C)n1c(=O)n(-c2cccc(OC(F)F)c2)c2ccc(C(=O)N[C@@H]3CCCC[C@H]3O)cc21` [Example 31, 1-[3-(difluoromethoxy)phenyl]-N-[(1R,2R)-2-hydroxycyclohexyl]-3-isopropyl-2-oxo-benzimidazole-5-carboxamide], the IC50 (read-out: DGAT2 IC50) came to 106 nM.
Turning to `CC(n1c(=O)n(-c2cc(OC(F)F)ccc2F)c2ccc(C(=O)NC3(C)CS(=O)(=O)C3)cc21)C(C)(C)O` (single isomer, unassigned) [EX-65b, 1-(5-(difluoromethoxy)-2-fluorophenyl)-3-(3-hydroxy-3-methylbutan-2-yl)-N-(3-methyl-1,1-dioxidothietan-3-yl)-2-oxo-2,3-dihydro-1H-benzo[d]imidazole-5-carboxamide], the IC50 (read-out: Human DGAT2 IC50) is 0.7 nM.
Turning to `CC(n1c(=O)n(-c2cc(OC(F)F)ccc2F)c2ccc(C(=O)NC3(C)CS(=O)(=O)C3)cc21)C(C)(C)O` (single isomer, unassigned) [EX-65a, 1-(5-(difluoromethoxy)-2-fluorophenyl)-3-(3-hydroxy-3-methylbutan-2-yl)-N-(3-methyl-1,1-dioxidothietan-3-yl)-2-oxo-2,3-dihydro-1H-benzo[d]imidazole-5-carboxamide], the concentration for half-maximal inhibition (IC50) (read-out: Human DGAT2 IC50) is 53 nM.
In the case of `CC(n1c(=O)n(-c2cc(OCC(F)F)ncc2F)c2cc(F)c(C(=O)NC3(C)CCS(=O)(=O)CC3)cc21)C(C)(C)O` (single isomer, unassigned) [Example 74a, 1-(2-(2,2-difluoroethoxy)-5-fluoropyridin-4-yl)-6-fluoro-3-(3-hydroxy-3-methylbutan-2-yl)-N-(4-methyl-1,1-dioxidotetrahydro-2H-thiopyran-4-yl)-2-oxo-2,3-dihydro-1H-benzo[d]imidazole-5-carboxamide], the IC50 (read-out: DGAT2 IC50) stood at 6.1 nM.
